# According to the METLIN SMRT retention time set (Domingo-Almenara et al. 2019):
# Assay: gradient 5% acetonitrile 3 min, to 50% in 2 min, to 85% in 15 min, held 3 min, 100 µL/min
# Settings: column: Zorbax Extend-C18 2.1 x 50 mm; eluents: water / acetonitrile, 0.1% formic acid
# Method in brief: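 Each retention time is based on an adduct peak selected computationally and verified by manual inspection. Measurements used HPLC–quadrupole time-of-flight mass spectrometry in positive and negative ionization mode on mixtures of ~100 pure standards. Chromatography ran on a Zorbax Extend-C18 column (2.1 × 50 mm, 1.8 μm) at 100 μL/min with water and acetonitrile, each containing 0.1% formic acid, and dead and dwell volumes of 40 μL and 900 μL.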
row,RP-LC retention time [s],SMILES
1,1020,Cc1cccc(NC(=O)C2CCCN(c3nc4ccsc4c(=O)n3-c3cccc(C)c3)C2)c1 (stereo not drawn)
2,849,COC(=O)c1cccc(Nc2c(-c3ccc(C)cc3)nc3cnccn23)c1
3,597,C=CCc1cc(OC)ccc1OCC(O)CN1CCN(c2ccc(OC)cc2)CC1 (stereo not drawn)
4,944,O=c1n(Cc2ccc3c(c2)OCO3)nc2c(-c3nc(-c4ccccc4)no3)cccn12
5,671,Cc1cccc(Nc2c(-c3ccccc3)nc3ncccn23)c1C
6,860,COc1ccc(CNC(=O)C2(C)Cc3ccccc3C(=O)N2Cc2ccco2)cc1 (stereo not drawn)
7,1160,Cc1oc2ccn(Cc3ccccc3F)c(=O)c2c1C(=O)NC1CCCCC1
8,694,CSc1cccc(NC(=O)N2CCN(c3cnn4c(C5CC5)nnc4c3)CC2)c1
9,951,Cn1nc(C(=O)Nc2ccccc2F)cc1C(F)(F)F
10,666,O=C(CSc1ccc(N2CCCC(C(=O)NC3CC3)C2)nn1)NCCc1ccc(Cl)cc1 (stereo not drawn)
11,600,Cc1c(NC(=O)c2cccs2)c(=O)n(-c2ccccc2)n1C
12,1010,O=C(CSc1cc(N2CCN(c3ccccc3F)CC2)ncn1)N1CCc2ccccc21
13,579,CC1CCCN(CCCNC(=O)c2ccc3c(c2)NC(=O)C2CCCN32)C1 (stereo not drawn)
14,850,CCN(C(=O)Cn1cnc2nc3c(cc2c1=O)CCCC3)c1cccc(Cl)c1
15,657,O=C(CCc1conc1-c1ccc(F)cc1)NC1CCN(Cc2ccccc2)CC1
16,724,COc1ccc(-c2cn3c(CC(=O)Nc4ccccc4F)csc3n2)cc1OC
17,598,O=C(CNC(=O)c1ccccc1)Nc1nc2ccccc2[nH]1
18,583,Cc1cc(CN2CCC(CNC(=O)Cc3ccccc3Cl)CC2)c(C)o1
19,604,O=C(c1ccc(-c2cccs2)nc1)N1CCN(c2ccccn2)CC1
20,615,CC(C)CNC(=O)CCC1CCN(c2cc(NC3CC3)ncn2)CC1
21,724,Cc1noc(COC2CCN(C(=O)Cc3c[nH]c4ccccc34)CC2)n1
22,817,CCn1nccc1C(=O)NC1CCN(C2=NS(=O)(=O)C(c3ccc(C)cc3)=C2C)CC1
23,864,CCn1c(=O)c(N2CCC(C(=O)NCCc3c[nH]c4ccc(OC)cc34)CC2)nc2cccnc21
24,1060,O=C(NCCc1c[nH]c2ccc(Cl)cc12)c1sc2ncccc2c1-n1cccc1

row,RP-LC retention time [s],SMILES
1,842,Cn1cc(-c2ccccc2)cc1C(=O)O
2,663,O=C(CN1C(=O)C(C(=O)N2CCCC2)Sc2ccccc21)NC1CCN(Cc2ccccc2)CC1 (stereo not drawn)
3,1210,COc1ccccc1CNS(=O)(=O)c1ccccc1-c1nc(-c2ccc(F)cc2)no1
4,872,O=C1NC2(CCN(C(=O)Nc3ccc(F)cc3)CC2)N=C1c1cccc(Cl)c1
5,674,O=C(NCC(c1cccnc1)c1c[nH]c2ccccc12)Nc1ccc(F)cc1F (stereo not drawn)
6,1030,Cc1ccc(-n2ccnc(NC(=O)Nc3ccc(F)cc3)c2=O)cc1C
7,951,CC(C)c1noc(-c2cc(=O)n(CC(=O)NCc3ccc(F)cc3)c3ccccc23)n1
8,1010,CCOC(=O)N1CCN(C(=O)Cc2c(C)nn(-c3nc(-c4ccc(F)cc4)cs3)c2C)CC1
9,676,CCn1nc(C)c(CCNC(=O)c2ccc(-c3ccc4c(c3)CCN4C(C)=O)cc2)c1C
10,682,C=CCn1c(=O)c2ccccc2n(Cc2nc(-c3ccc(OCC)c(OC)c3)no2)c1=O
11,894,O=C(CCC1CCN(S(=O)(=O)c2ccccc2)CC1)N1CCCCC1
12,599,O=C(NCCNC(=O)c1ccc(N2CCOCC2)nn1)c1ccc(NC(=O)C2CC2)cc1
13,788,COc1ccc(CC(=O)N2CCN(c3ccc(-c4nc(C)cs4)cn3)CC2)cc1OC
14,763,COc1ccc(NC(=O)N2C[C@@H](F)C[C@H]2C(=O)N2CCc3ccccc3C2)cc1
15,696,COc1ccccc1OCCN1C(=O)CCc2c(C)ncnc21
16,827,Cc1oc2ccn(Cc3ccccc3F)c(=O)c2c1C(=O)NCc1cc(F)cc(F)c1
17,915,COc1ccc(N2CCN(c3nc(C(=O)NCC4CC4)cs3)CC2)cc1
18,1310,Cc1cccc(-c2noc(-c3ccc(N4CCN(c5ncccn5)CC4)nc3)n2)c1
19,784,COc1ccc(C(=O)Nc2cc(-c3ccccn3)no2)cc1
20,1020,Cc1ccccc1CN1C(=O)CN(S(=O)(=O)c2ccccc2)CC1(C)C(=O)NC1CCCCC1 (stereo not drawn)
21,606,COC(=O)C(NC(=O)N1CCCn2nc(-c3ccncc3)cc2C1)c1ccccc1 (stereo not drawn)
22,573,O=C(CN1CCN(c2ccccn2)CC1)N1N=CCC1c1ccccc1 (stereo not drawn)
23,787,CC(NC(=O)Cn1cc(C(=O)C(=O)N2CCOCC2)c2ccccc21)c1ccc2c(c1)OCCCO2 (stereo not drawn)

# More lines, now with the values behind:
row,SMILES,RP-LC retention time [s]
1,COc1cc(-c2nnc(/C=C/c3ccccc3)o2)cc(OC)c1OC,904
2,Cc1ccc(C)c(C(=O)Nc2cnn(-c3ncc(N(C)C)cn3)c2)c1,788
3,C/C(O)=C(\C#N)C(=O)Nc1ccc(C(F)(F)F)cc1,858
4,CCCNC(=O)N1CCCC1c1nc(-c2ccccc2C)no1 (stereo not drawn),863
5,COCCNC(=O)C1CCN(C(=O)c2ncn3c2COC(c2ccc(OC)cc2)C3)CC1 (stereo not drawn),658
6,Cc1cc(Cl)ccc1NC(=O)CCc1c(C)nn(-c2cc(N(C)C)ncn2)c1C,862
7,Cc1nn(C)c(=O)c2cc(S(=O)(=O)NCc3ccc(F)cc3)cn12,766
8,CC1(C)SC2C(NC(=O)[C@H](NC(=O)N3CCNC3=O)c3ccccc3)C(=O)N2C1C(=O)O (stereo partly drawn),709
9,CCC(C)NC(=O)C1CCN(c2nccc(-n3nc(C)cc3C)n2)CC1 (stereo not drawn),745
10,Cc1noc([C@@H]2CC(F)(F)CN2S(=O)(=O)c2ccc(F)cc2)n1,884
11,COC(=O)C1=C(NC(=O)COc2ccc(Cl)cc2Cl)CCS1,1110
12,Cc1ccc(-c2nnc(Cc3nc(-c4cccc(C(F)(F)F)c4)no3)o2)cc1F,1180
13,CCn1c(=O)sc2cc(S(=O)(=O)N3CCC(C(=O)NC4CCCCCC4)CC3)ccc21,937
14,O=C(CCc1ccc2cc[nH]c2c1)NCc1cccs1,806
15,COc1ccc(C2(C(=O)N3[C@H]4CC[C@@H]3c3cnc(C)nc3C4)CCCCC2)cc1,812
16,CCn1c(C(=O)NCc2ccccc2OC)cc2sccc21,1010
17,Cc1ccc(CCC(=O)Nc2c(C)cccc2C(=O)O)o1,726
18,Cn1nc(C(=O)N2CCCC(C(=O)Nc3ccccc3)C2)c2c1CCN(C(=O)C1CCCCC1)C2 (stereo not drawn),796
19,COC1CCC12CCN(S(=O)(=O)c1ccc(F)c(C)c1)CC2 (stereo not drawn),1030
20,CCC(C)NC(=O)C1CCN(S(=O)(=O)c2c(C)nn(-c3ccc(F)cc3)c2C)CC1 (stereo not drawn),842
21,CCc1ccc(NC(=O)Cc2c(C)nn(-c3nc(-c4ccc(C)cc4)cs3)c2C)cc1,1320

row,SMILES,RP-LC retention time [s]
1,COc1ccc(OC)c(CNC(=O)Cc2nnc(-c3ccccn3)o2)c1,687
2,O=C(CC1CCCCC1)NC1CCN(C(=O)c2cc(-c3cccc(Cl)c3)n[nH]2)CC1,797
3,COCCCNC(=O)[C@@H]1[C@H](c2cc(OC)c(OC)c(OC)c2)c2cc3c(cc2[C@H](O)[C@H]1CO)OCO3,630
4,CCc1cccc(NS(=O)(=O)c2cc(-c3[nH]ncc3C(=O)N(C)C)oc2C)c1,718
5,Cn1cc(C(=O)Nc2ccc(Cl)cc2)c2cccnc21,835
6,c1cc2c3c(cccc3c1)NC1(CCC3(CC1)Nc1cccc4cccc(c14)N3)N2,1200
7,COc1ccc(-c2c(C)noc2NC(C)=O)cc1S(=O)(=O)NCc1ccc(C)o1,714
8,COc1ccc(S(=O)(=O)N2CCCC(C(=O)NCC3CCCO3)C2)cc1OC (stereo not drawn),684
9,O=C(NC1CC1)[C@@H]1C[C@H](Oc2cccnc2)CN1C(=O)c1cccs1,574
10,CCN1C(=O)c2cc(S(=O)(=O)Nc3cc(C)cc(C)c3)ccc2Oc2cccnc21,1080
11,COCC(=O)NC1CCC12CCN(S(=O)(=O)C(C)C)CC2 (stereo not drawn),682
12,O=C(Cn1cnc2nc(N3CCC(C(=O)NC4CC4)CC3)sc2c1=O)NC1CCCCC1,649
13,Cc1nn(CC(=O)NCCCN(C)Cc2ccccc2)c(=O)c2noc(C)c12,588
14,Cc1ccc(C)c(-c2coc(-c3ccc(NC(=O)NCc4cccc(F)c4)cc3)n2)c1,1190
15,O=C(NCC(O)C1CCCCC1)c1cccc(C(F)(F)F)c1 (stereo not drawn),840
16,CS(=O)(=O)N1CC(F)(F)C[C@H]1c1nc(-c2ccncc2)no1,693
17,CCCCc1ccc(NC(=O)C2CCN(C(=O)C(C)(C)C)CC2)cc1,1020
18,CO[C@H]1CN(C(C)C)[C@H]1C1CCN(C(=O)C2CCC2)CC1,574
19,COc1ccc2c(c1)C1(CCN(C(=O)Nc3cccc(F)c3)C1)C(=O)N2C (stereo not drawn),811
20,CC(C)Cc1cc(-c2nn3c(COc4ccc(F)cc4)nnc3s2)n[nH]1,936
